The source of these data is US10172843B2, “Piperidine derivatives” (Hoffmann-La Roche Inc., priority 2014, dated 2019).

Each structure is given as a SMILES string.

human Cat S, sequence (P25774 115-331): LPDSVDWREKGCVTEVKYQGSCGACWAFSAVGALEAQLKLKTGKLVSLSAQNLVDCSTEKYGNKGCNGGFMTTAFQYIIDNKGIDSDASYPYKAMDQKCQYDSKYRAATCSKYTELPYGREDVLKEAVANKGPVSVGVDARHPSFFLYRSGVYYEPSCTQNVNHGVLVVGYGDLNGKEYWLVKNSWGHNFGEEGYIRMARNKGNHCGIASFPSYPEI

The target in this assay is human Cat S (Homo sapiens (Human), UniProt P25774). Kind of assay: Cathepsin enzyme inhibition assay (fluorogenic peptide substrate). The class given is biochemical. The following applies: human Cat S, enzyme 1 nM, substrate Z-Val-Val-Arg-AMC, pH 6.5; read-out: CatS IC50. How it is done:
Cathepsin Enzyme Inhibition Assay
Enzyme activity is measured by observing the increase in fluorescence intensity caused by cleavage of a peptide substrate containing a fluorophore whose emission is quenched in the intact peptide.
Assay buffer: 100 mM potassium phosphate pH 6.5, EDTA-Na 5 mM, Triton X-100 0.001%, DTT 5 mM.
Enzymes (all at 1 nM): human and mouse Cathepsin S, Cat K, Cat B, Cat L.
Substrate ([…], except for Cat K which uses Z-Leu-Arg-AMC (both from Bachem).
Excitation 360 nm, Emission 465 nm.
Enzyme is added to the substance dilutions in 96-well microtitre plates and the reaction is started with substrate. […] IC50 are calculated by standard methods.
Inhibition of human Cat S, mouse Cat S, human Cat K, mouse Cat K, human Cat B, mouse Cat B, human Cat L and mouse Cat L have been measured separately.
One may read the IC50 as the concentration needed to halve the response being measured. As to `Cc1[nH]c(-c2ccc(S(=O)(=O)C(F)(F)F)cc2)nc1CN1CCC(n2c(=O)n(C)c3ccccc32)CC1` [Example 75, 1-Methyl-3-{1-[5-methyl-2-(4-trifluoromethanesulfonyl-phenyl)-1H-imidazol-4-ylmethyl]-piperidin-4-yl}-1,3-dihydro-benzoimidazol-2-one], the IC50 amounted to 60 nM.

For the molecule `CCCc1[nH]c(-c2ccc(C(F)(F)F)cc2)nc1CN1CCC(n2c(=O)n(C)c3ccccc32)CC1` [Example 64, 1-Methyl-3-{1-[5-propyl-2-(4-trifluoromethyl-phenyl)-1H-imidazol-4-ylmethyl]-piperidin-4-yl}-1,3-dihydro-benzoimidazol-2-one], the IC50 worked out at 928 nM.

For `Cc1[nH]c(-c2ccc(C(F)(F)F)cc2)nc1CN1CCC(n2c(=O)[nH]c3ccc(N4CCN(C)CC4)cc32)CC1` [Example 11, 6-(4-Methyl-piperazin-1-yl)-1-{1-[5-methyl-2-(4-trifluoromethyl-phenyl)-1H-imidazol-4-ylmethyl]-piperidin-4-yl}-1,3-dihydro-benzoimidazol-2-one], the IC50 amounted to 460 nM.

As to `Cc1[nH]c(-c2ccc(C(F)(F)F)c(Cl)c2)nc1CN1CCC(c2c[nH]c3ncccc23)CC1` [Example 46, 3-{1-[2-(3-Chloro-4-trifluoromethyl-phenyl)-5-methyl-1H-imidazol-4-ylmethyl]-piperidin-4-yl}-1H-pyrrolo[2,3-b]pyridine], the IC50 was determined as 305 nM.

For the molecule `Cc1[nH]c(-c2ccc(C(F)(F)F)c(Cl)c2)nc1CN1CCC(n2c(=O)n(C)c3ccccc32)CC1` [Example 39, 1-{1-[2-(3-Chloro-4-trifluoromethyl-phenyl)-5-methyl-1H-imidazol-4-ylmethyl]-piperidin-4-yl}-3-methyl-1,3-dihydro-benzoimidazol-2-one], the concentration for half-maximal inhibition (IC50) came to 242 nM. As for `Cc1nc(-c2ccc(C(F)(F)F)cc2)[nH]c1CN1CCC(n2cc(-c3ccc(Br)cc3)[nH]c2=O)CC1` [Example 12, 5-(4-Bromophenyl)-3-[1-[[4-methyl-2-[4-(trifluoromethyl)phenyl]-1H-imidazol-5-yl]methyl]-4-piperidyl]-1H-imidazol-2-one], the figure is 590 nM; as for `CC(=O)OCCn1c(=O)n(C2CCN(Cc3nc(-c4ccc(C(F)(F)F)cc4)[nH]c3C)CC2)c2ccc(Cl)cc21` [Example 29, Acetic acid 2-(6-chloro-3-{1-[5-methyl-2-(4-trifluoromethyl-phenyl)-1H-imidazol-4-ylmethyl]-piperidin-4-yl}-2-oxo-2,3-dihydro-benzoimidazol-1-yl)-ethyl ester], 280 nM; as for `Cc1[nH]c(-c2ccc(C(F)(F)F)cc2)nc1CN1CCC(N2Cc3ccccc3N(C)C2=O)CC1` [Example 53, 1-Methyl-3-{1-[5-methyl-2-(4-trifluoromethyl-phenyl)-1H-imidazol-4-ylmethyl]-piperidin-4-yl}-3,4-dihydro-1H-quinazolin-2-one], 145 nM. The same measure for `O=C1Nc2ccc(Br)cc2CN1C1CCN(Cc2cnc(-c3ccc(C(F)(F)F)cc3)[nH]2)CC1` [Example 17, 6-Bromo-3-[1-[[2-[4-(trifluoromethyl)phenyl]-1H-imidazol-5-yl]methyl]-4-piperidyl]-1,4-dihydroquinazolin-2-one]: 195 nM; for `Cc1[nH]c(-c2ccc(C(F)(F)F)cc2Cl)nc1CN1CCC(n2c(=O)n(C)c3ccccc32)CC1` [Example 60, 1-{1-[2-(2-Chloro-4-trifluoromethyl-phenyl)-5-methyl-1H-imidazol-4-ylmethyl]-piperidin-4-yl}-3-methyl-1,3-dihydro-benzoimidazol-2-one]: 915 nM; for `Cc1[nH]c(-c2ccc(Cl)cc2Cl)nc1CN1CCC(N2Cc3ccccc3NC2=O)CC1` [Example 57, 3-{1-[2-(2,4-Dichloro-phenyl)-5-methyl-1H-imidazol-4-ylmethyl]-piperidin-4-yl}-3,4-dihydro-1H-quinazolin-2-one]: 995 nM.
